From patent US20110045083A1, “USE LARCH WOOD FOR TREATING INFLAMMATION” (priority 2007, published 2011)
Several values for one entry are separate records, joined by “and”; a condition that tells them apart may be missing. Identical values can stand only once. Entries after “also recorded” stand apart in the source; their conditions may differ. Like-named read-outs stand apart in the source and are kept apart here.

What was measured:
COX-1 (purified PGHS-1) = molecular target: T1, COX-1 (purified PGHS-1) (Ovis aries, UniProt P05979); assay: COX-1 assay, purified enzyme, PGE2 EIA; format: biochemical, ram; conditions: for inhibition at 50 µM: screening concentration 50 μM
T1 construct: purified PGHS-1 (COX-1) from ram seminal vesicles; purchased Cayman Chemical Company, Ann Arbor, Mich., USA; host or cells: ram seminal vesicles (tissue-purified)
T1 sequence (P05979 25-600): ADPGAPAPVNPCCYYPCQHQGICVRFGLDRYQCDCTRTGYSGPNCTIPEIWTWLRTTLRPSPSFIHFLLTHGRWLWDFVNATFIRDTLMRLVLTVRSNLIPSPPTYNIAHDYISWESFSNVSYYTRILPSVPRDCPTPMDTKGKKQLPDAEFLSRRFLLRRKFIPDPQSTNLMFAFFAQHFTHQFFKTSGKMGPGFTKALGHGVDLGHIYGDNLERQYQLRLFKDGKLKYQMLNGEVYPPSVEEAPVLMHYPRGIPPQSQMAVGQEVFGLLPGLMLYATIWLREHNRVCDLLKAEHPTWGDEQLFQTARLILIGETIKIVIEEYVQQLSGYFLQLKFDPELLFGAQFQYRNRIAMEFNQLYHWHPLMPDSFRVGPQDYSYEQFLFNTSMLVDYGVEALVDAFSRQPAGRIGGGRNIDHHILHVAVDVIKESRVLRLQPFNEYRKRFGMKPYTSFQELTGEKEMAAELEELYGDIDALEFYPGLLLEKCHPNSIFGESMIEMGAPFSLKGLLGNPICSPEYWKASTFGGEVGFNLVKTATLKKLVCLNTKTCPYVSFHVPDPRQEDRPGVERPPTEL
Method: (§1) Principle: The purified enzymes COX-1 and COX-2 are incubated with a defined concentration of test sample and arachidonic acid. After stopping the enzymatic reaction by addition of formic acid and dilution, the produced PGE2 is quantified by means of a PGE2 EIA kit.
(§2) Sample preparation: The test samples (extracts and pure compounds) are dissolved in ethanol. Extracts are tested in concentrations of 20 μg/ml for screening. Pure compounds are tested in concentrations of 50 μM for screening.
(§3) Incubation procedure: The assays are performed in a microtiter scale with purified PGHS-1 (COX-1) from ram seminal vesicles and purified PGHS-2 (COX-2) from sheep placental cotyledones (both: Cayman Chemical Company, Ann Arbor, Mich., USA). The incubation mixture consists of 180 μl 0.1 M TRIS/HCl-buffer (pH 8.0) (Roth, Karlsruhe, Germany), 5 μM hematin, (porcine, ICN, Aurora, Ohio, USA), 18 mM epinephrine hydrogen tartrate (Fluka, Buchs, Switzerland), 0.2 U of enzyme preparation and 50 μM Na2EDTA (only COX-2 assay, Titriplex III, Merck, Darmstadt, Germany). 10 μl of each test solution are added and the mixture is preincubated for 5 min at room temperature. The reaction is started by adding 10 μl of 5 μM arachidonic acid (Cayman Chemical Company) in EtOH p.a. and the reaction mixture is incubated at 37° C. The reaction is terminated after 20 min by addition of 10 μl of 10% formic acid.
(§4) PGE2 EIA: The concentration of PGE2, the main arachidonic acid metabolite in this reaction, is determined by a competitive PGE2 EIA kit (Assay Designs Inc., Ann Arbor, Mich., USA). All samples are diluted in EIA buffer. The EIA is incubated for 2 hours at room temperature on an orbital shaker. After a washing step, 200 μl of substrate solution are added to each well, and the EIA is incubated for 1 hour at room temperature. After addition of 50 μl stop solution, the EIA is evaluated photometrically by an ELISA microplate reader.
(§5) Inhibition of COX refers to reduction of PGE2 formation in comparison to a blank run without inhibitor. Inhibition values are means of at least 2 experiments and each sample is tested in duplicate. […] IC50 values of active samples were determined by testing at least 3 concentrations in 3 different experiments, in duplicate each. IC50 was calculated by logarithmic regression after graphical representation.

COX-2 (purified PGHS-2) = molecular target: T2, COX-2 (purified PGHS-2) (Ovis aries, UniProt P79208); assay: COX-2 assay, purified enzyme, PGE2 EIA; format: biochemical, sheep; conditions: for inhibition at 50 µM: screening concentration 50 μM
T2 construct: purified PGHS-2 (COX-2) from sheep placental cotyledones; purchased Cayman Chemical Company, Ann Arbor, Mich., USA; host or cells: sheep placental cotyledons (tissue-purified)
T2 sequence (P79208 17-603): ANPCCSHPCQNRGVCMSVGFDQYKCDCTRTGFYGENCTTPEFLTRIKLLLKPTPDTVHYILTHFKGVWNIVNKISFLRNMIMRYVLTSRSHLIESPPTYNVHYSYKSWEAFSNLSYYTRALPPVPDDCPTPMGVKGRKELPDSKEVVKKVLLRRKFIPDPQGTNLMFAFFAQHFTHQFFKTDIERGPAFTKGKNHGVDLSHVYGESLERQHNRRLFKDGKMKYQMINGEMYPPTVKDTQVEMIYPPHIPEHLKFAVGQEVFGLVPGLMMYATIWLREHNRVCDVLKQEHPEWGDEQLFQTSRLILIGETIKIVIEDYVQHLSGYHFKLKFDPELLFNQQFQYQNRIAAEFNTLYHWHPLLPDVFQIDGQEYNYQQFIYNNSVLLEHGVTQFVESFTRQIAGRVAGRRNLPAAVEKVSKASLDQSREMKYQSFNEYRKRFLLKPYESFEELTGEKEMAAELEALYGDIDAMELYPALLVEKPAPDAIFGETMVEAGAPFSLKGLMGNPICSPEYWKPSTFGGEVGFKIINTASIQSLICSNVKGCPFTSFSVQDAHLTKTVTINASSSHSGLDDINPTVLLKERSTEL
Method: as §1, §2, §3, §4, §5

IC50 COX-1 (COX-1 (purified PGHS-1))	inhibition at 50 µM (COX-1 (purified PGHS-1))	inhibition at 50 µM (COX-2 (purified PGHS-2))	IC50 COX-1 (COX-1 (purified PGHS-1); listed as dehydroabietinol)	IC50 COX-2 (COX-2 (purified PGHS-2))	IC50 COX-2 (COX-2 (purified PGHS-2); listed as dehydroabietinol)	IC50 (COX-2 (purified PGHS-2); read-out: IC50 COX-2)	IC50 COX-1 (COX-1 (purified PGHS-1); listed as larixol)	IC50 COX-2 (COX-2 (purified PGHS-2); listed as larixol)	Compound	IC50 COX-1 (COX-1 (purified PGHS-1); listed as palustric acid)	IC50 (COX-2 (purified PGHS-2); IC50 COX-2)
Inactive	0.2 ± 5.9%	38.5 ± 5.9%		devoid of COX-2inhibitory activity		95 µM and 95.1 µM			C=CC(C)(O)CCC1C(=C)CC(OC(C)=O)C2C(C)(C)CCCC12C (stereo not drawn) [Larixyl acetate]		
Inactive	2.1 ± 4.7%	8.7 ± 3.8%		Inactive			inactive	inactive	C=CC(C)(O)CCC1C(=C)CC(O)C2C(C)(C)CCCC12C (stereo not drawn) [Larixol]		

Continued, molecule first:

Compound	IC50 COX-1 (COX-1 (purified PGHS-1))	inhibition at 50 µM (COX-1 (purified PGHS-1))	inhibition at 50 µM (COX-2 (purified PGHS-2))	IC50 COX-1 (COX-1 (purified PGHS-1); listed as dehydroabietinol)	IC50 COX-2 (COX-2 (purified PGHS-2))	IC50 COX-2 (COX-2 (purified PGHS-2); listed as dehydroabietinol)	IC50 (COX-2 (purified PGHS-2); read-out: IC50 COX-2)	IC50 COX-1 (COX-1 (purified PGHS-1); listed as larixol)	IC50 COX-2 (COX-2 (purified PGHS-2); listed as larixol)	IC50 COX-1 (COX-1 (purified PGHS-1); listed as palustric acid)	IC50 (COX-2 (purified PGHS-2); IC50 COX-2)
CC(C)C1=CC2=C(CC1)C1(C)CCCC(C)(C(=O)O)C1CC2 (stereo not drawn) [Palustric acid]	Inactive	13.5 ± 4.7%	49.5 ± 3.5%							without inhibiting	57.9 µM
CC(C)c1ccc2c(c1)CCC1C(C)(CO)CCCC21C (stereo not drawn) [Dehydroabietinol]	Inactive	-1.6 ± 4.6%	7.7 ± 8%	inactive	Inactive	inactive					
C=C[C@@]1(C)CC[C@H]2C(=CC[C@@H]3[C@]2(C)CCC[C@@]3(C)C(=O)O)C1 [Isopimaric acid]	without inhibiting; also recorded: Inactive	15.7 ± 7.1%	3.5 ± 6.2%		without inhibiting; also recorded: Inactive						
CC(C)c1ccc2c(c1)CCC1C(C)(C(=O)O)CCCC21C (stereo not drawn) [Dehydroabietic acid]	Inactive	2.9 ± 7.8%	-6 ± 9%		Inactive						
